{"source": "patent US20090170871A1", "about": "“IL-8 Receptor Antagonists” (SMITHKLINE BEECHAM CORPORATION, priority 2006, published 2009)", "tested_on": "whole blood neutrophil CD11b expression (CXCL2-stimulated)", "assay": "Neutrophil CD11b Stimulation Following Oral Dosing to Rats", "assay_type": "in vivo, Lewis rats", "protocol": "Rat whole blood, 3 ml, was drawn by cardiac puncture in a syringe containing 100 μl of 0.25 M EDTA (GIBCO, Grand Island, N.Y.). Rat CXCL2 (PeproTech, Rocky Hill, N.J.) stock was made by reconstitution in Kreb's/0.1% BSA (KBSA) at 10 μM. The stock was diluted to “11×” the maximum concentration used in DPBS (GIBCO) and serially diluted in KBSA/DPBS vehicle. […] The tubes were incubated for 30 minutes in a 37° C. bath, with gentle hand agitation every 10 minutes. The samples were then placed on ice for 10 minutes followed by addition of 10 μl of anti-rat-CD11b-FITC or FITC-labeled mouse IgG2a isotype control (both Antigenix America, Huntington Station, N.Y.) and incubated for 30 minutes on ice. FACS Lysing Solution (Becton Dickinson, San Jose, Calif.), 1 ml of 1×, was added with immediate vigorous vortexing, followed by additional vortex after the solution was added to the last sample. Samples were incubated for 10 minutes at room temperature and the leukocytes were pelleted at ˜300×g and washed with DPBS. Cells were resuspended in 650 μl of 1% paraformaldahyde. […] FL1 (green FITC fluorescence, directly relating to CD11b content) of this population was then measured as mean channel fluorescence by analysis with CellQuest software.", "data": [{"molecule": "Cc1ccc(S(=O)(=O)O)cc1.O=C(Nc1ccc(Cl)c(S(=O)(=O)N2CCNCC2)c1O)Nc1cccc(F)c1Cl", "note": "[present compound, N-[4-chloro-2-hydroxy-3-(piperazine-1-sulfonyl)phenyl]-N′-(2-chloro-3-fluorophenyl)urea p-toluenesulfonate]", "values": [{"measurement": "EC50 of the CXCL2 concentration response curve (CD11b expression) in treated rats", "setting": "oral 10 mg/kg, Lewis rats, vehicle-treated rats 4.7 nM (1.9-7.4; 95% C.I.), treated 95% C.I. 10.0-14.7, p<0.001, n=6 per group", "value": 0.0123, "unit": "µM"}, {"measurement": "inhibition of whole blood neutrophil CD11b expression", "setting": "oral dosing to Lewis rats at 10 mg/kg, blood drawn one hour later", "value": "active"}]}]}
